{
  "source": "patent US5650406A",
  "about": "“Adamantane derivative, process for producing the same, and use thereof” (Asahi Kasei Kogyo Kabushiki Kaisha, priority 1994, dated 1997)",
  "key": {"[1]": {"molecular_target": "σ-receptor", "test": "σ-receptor binding, [^3 H] DTG displacement on rat brain membranes (Table 1)", "design": "species or system Sprague-Dowley rats", "settings": "for Ki: hydrochloride, [^3 H] DTG 3 nM, 25° C., 60 minutes, rat brain membrane, read-out: Sigma [^3 H] DTG Ki"}, "[2]": {"test_system": "σ-receptor", "settings": "cited from earlier work"}, "[3]": {"test_system": "apomorphine induced climbing", "test": "Suppressive action on apomorphine induced climbing (Table 2)", "type": "in vivo, ICR mice, male", "settings": "hydrochloride; 30 mg/kg, p.o.; 1 hour before apomorphine 2 mg/kg s.c.; climbing observed 3 minutes after 20-23 minutes", "protocol": "Administering dopamine agohist, apomorphine in mouse resulted various abnormal behaviors, and especially, a climbing the cage has been known to be correlated with human schizophrenia. Therefore, a drug showing suppressire activity for apomorphine induced climbing in mice can be presumed to be effective as antischizophrenia activity on humans.\nThe compounds of the present invention were administered orally in ICR mice, male (Charles River Corp.), and after 1 hour, apomorphine 2 mg/kg was administered subcutaneously. Climbing behaviors of 3 minutes after 20-23 minutes of apomorphine administration were observed. Climbing behavior was observed by entering the mice in stainless steel made wire netting cage and measuring time remaining above the upper part of half part of the cage at observing. A climbing time of apomorphine single administered group is set as 100% and shortened time by administering the drug is shown in suppression rate."}},
  "note": "Like-named read-outs stand apart in the source and are kept apart here.",
  "data": [
    {"compound": "OC12CC3CC(C1)C(CCN1CC4CCC(CC4)C1)C(C3)C2", "note": "(single isomer, unassigned) [Example 2, 3-[2-(5-hydroxy-2-adamantyl)ethyl]-3-azabicyclo[3.2.2] nonane]", "values": [
      {"measurement": "Ki", "setting": "[1]", "value": 500, "unit": "pM"}
    ]},
    {"compound": "ClC12CC3CC(C1)C(CCN1CC4CCC(CC4)C1)C(C3)C2", "note": "(single isomer, unassigned) [Example 3, 3-[2-(5-chloro-2-adamantyl)ethyl]-3-azabicyclo[3.2.2] nonane]", "values": [
      {"measurement": "Ki", "setting": "[1]", "value": 270, "unit": "pM"}
    ]},
    {"compound": "COC12CC3CC(C1)C(CCN1CC4CCC(CC4)C1)C(C3)C2", "note": "(single isomer, unassigned) [Example 4, 3-[2-(5-methoxy-2-adamantyl)ethyl]-3-azabicyclo[3.2.2] nonane]", "values": [
      {"measurement": "Ki", "setting": "[1]", "value": 1030, "unit": "pM"}
    ]},
    {"compound": "OC(CCCN1CCN(c2ncc(F)cn2)CC1)c1ccc(F)cc1", "note": "(stereo not drawn) [BMY-14802]", "values": [
      {"measurement": "affinity to σ-receptor (background, in words)", "setting": "[2]; prior art", "value": "show affinity to σ-receptor"}
    ]},
    {"compound": "C1CC2CCC1CN(CCC1C3CC4CC(C3)CC1C4)C2", "note": "(stereo not drawn) [Example 1, 3-[2-(2-adamantyl)ethyl]-3-azabicyclo[3.2.2] nonane]", "values": [
      {"measurement": "Ki", "setting": "[1]", "value": 340, "unit": "pM"},
      {"measurement": "Suppressive rate", "setting": "[3]", "value": 62, "unit": "%"}
    ]},
    {"compound": "C1CC2CCC1CN(CCC13CC4CC(CC(C4)C1)C3)C2", "note": "[Example 5, 3-[2-(1-adamantyl)ethyl]-3-azabicyclo[3.2.2] nonane]", "values": [
      {"measurement": "Ki", "setting": "[1]", "value": 190, "unit": "pM"}
    ]},
    {"compound": "CC12CC3CC(C1)CC(CCN1CC4CCC(CC4)C1)(C3)C2", "note": "[Example 6, 3-[2-(3-methyl-l-adamantyl)ethyl]-3-azabicyclo[3.2.2] nonane]", "values": [
      {"measurement": "Ki", "setting": "[1]", "value": 450, "unit": "pM"}
    ]},
    {"compound": "C1C2CC3CC1CC(C2)C3CCN1CC2CC3CC(C2)CC1C3", "note": "(stereo not drawn) [Example 7, 4-[2-(2-adamantyl)ethyl]-4-azatricyclo[4.3.1.1^3.8] undecane]", "values": [
      {"measurement": "Ki", "setting": "[1]", "value": 260, "unit": "pM"},
      {"measurement": "Suppressive rate", "setting": "[3]", "value": 60, "unit": "%"}
    ]},
    {"compound": "OC12CC3CC(C1)C(CCN1CC4CC5CC(C4)CC1C5)C(C3)C2", "note": "(stereo not drawn) [Example 8, 4-[2-(5-hydroxy-2-adanaantyl)ethyl]-4-azatricyclo[4.3.1.1^3.8] undecane]", "values": [
      {"measurement": "Ki", "setting": "[1]", "value": 1230, "unit": "pM"},
      {"measurement": "Suppressive rate", "setting": "[3]", "value": 78, "unit": "%"}
    ]},
    {"compound": "ClC12CC3CC(C1)C(CCN1CC4CC5CC(C4)CC1C5)C(C3)C2", "note": "(stereo not drawn) [Example 9, 4-[2-(5-chloro-2-adamantyl)ethyl]-4-azatricyclo[4.3.1.1^3.8] undecane]", "values": [
      {"measurement": "Ki", "setting": "[1]", "value": 550, "unit": "pM"}
    ]},
    {"compound": "COC12CC3CC(C1)C(CCN1CC4CC5CC(C4)CC1C5)C(C3)C2", "note": "(stereo not drawn) [Example 10, 4-[2-(5-methoxy-2-adamantyl)ethyl]-4-azatricyclo[4.3.1.1^3.8] undecane]", "values": [
      {"measurement": "Ki", "setting": "[1]", "value": 630, "unit": "pM"}
    ]},
    {"compound": "C1C2CC3CC1CC(C2)N(CCC12CC4CC(CC(C4)C1)C2)C3", "note": "[Example 11, 4-[2-(1-adamantyl)ethyl]-4-azatricyclo[4.3.1.1^3.8] undecane]", "values": [
      {"measurement": "Ki", "setting": "[1]", "value": 200, "unit": "pM"}
    ]},
    {"compound": "CC12CC3CC(C1)CC(CCN1CC4CC5CC(C4)CC1C5)(C3)C2", "note": "[Example 12]", "values": [
      {"measurement": "Ki", "setting": "[1]", "value": 290, "unit": "pM"}
    ]},
    {"compound": "O=C(CCCN1CCC(O)(c2ccc(Cl)cc2)CC1)c1ccc(F)cc1", "note": "[haloperidol]", "values": [
      {"measurement": "affinity to σ-receptor (background, in words)", "setting": "[2]", "value": "bind strongly with σ-receptor"}
    ]},
    {"compound": "C[C@@H]1CN(CCCn2c3ccccc3c3ccccc32)C[C@H](C)N1", "note": "[limcazol]", "values": [
      {"measurement": "affinity to σ-receptor (background, in words)", "setting": "[2]; prior art", "value": "show affinity to σ-receptor"}
    ]},
    {"compound": "c1ccc(C2(N3CCCCC3)CCCCC2)cc1", "note": "[phencyclidine]", "values": [
      {"measurement": "affinity to σ-receptor (background, in words)", "setting": "[2]; prior art", "value": "has affinities for σ-receptor"}
    ]},
    {"compound": "Cc1ccccc1NC(=N)Nc1ccccc1C", "note": "[radioactive ligand, [^3 H] 1,3-di(2-tolyl) guanidine, reference compound]", "values": [
      {"measurement": "Kd", "setting": "[1]; radioactive ligand for σ-receptor, used in Ki calculation, read-out: Kd (concentration of affinity of radioactive ligand for receptor)", "value": 10600, "unit": "pM"}
    ]},
    {"compound": "haloxon", "values": [
      {"measurement": "affinity to σ-receptor (background, in words)", "setting": "[2]; prior art", "value": "no affinity to σ-receptor"}
    ]}
  ]
}
